According to US20180028553A1, “USE OF STING AGONIST AS CANCER TREATMENT” (The University of Chicago, priority 2013, published 2018):
Entries after “also recorded” stand apart in the source; their conditions may differ.

How the values were obtained:
[1] = tested on: STING pathway (TBK1, IRF3 phosphorylation); assay: Western blot of pTBK1 and pIRF3 in macrophages and BM-DCs after STING agonist; type: cell-based, mouse
Description: DMXAA for the same time-points. Proteins were extracted with Triton-X buffer (150 mM sodium chloride, 50 mM Tris, 1% Triton-X, pH 8.0) with proteinase inhibitors (Thermo scientific) and phosphatase inhibitors (Sigma). 30 μg of protein was electrophoresed in 10% SDS-PAGE gels and transferred onto Immobilon-FL membranes (Millipore). Blots were incubated with antibodies specific for phosphorylated TBK1 (Ser172), phosphorylated IRF3 (Ser396), total TBK1, STING and GAPDH (Cell Signaling) or total IRF3 (Invitrogen). Proteins from HEK 293T lines stably expressing STING were extracted with M-PER (Thermo Scientific). 6 μg of protein was loaded onto a 4-12% MES NuPAGE gel (Life Technologies), transferred to nitrocellulose, and probed with anti-HA antibody (Santa Cruz). Anti-rabbit IRDye 680RD label secondary antibody was used for visualization of bands with the Odyssey Imaging system (LI-COR).

IFN-β = assay: Murine IFN-β ELISA, macrophages and BM-DCs; type: cell-based, mouse
Description: Murine IFN-β ELISA. […] Conditioned media were collected after 4 hours. IFN-β concentration was assessed using VeriKine™ Mouse Interferon Beta ELISA Kit (PBL interferon source).

Cc1ccc2c(=O)c3cccc(CC(=O)O)c3oc2c1C [DMXAA, 5,6-dimethylXAA (xanthenone-4-acetic acid)]
activation of the STING pathway (pTBK1, pIRF3) ([1]; BM-DC from WT or STING ko mice): same potent activation of the pathway
phosphorylation of TBK1 and IRF3 ([1]; STING deficient macrophages, DMXAA 50 μg/ml): not in STING deficient cells; also recorded: abolished
phosphorylation of TBK1 and IRF3 ([1]; STING^−/− macrophages reconstituted with mSTING-HA, DMXAA): restored phosphorylation of TBK1 and IRF3
phosphorylation of TBK1 and IRF3 ([1]; WT macrophages, DMXAA 50 μg/ml or ML RR-S2 CDA 50 μM): rapid and potent phosphorilation of TBK1 and IRF3; also recorded: phosphorylation of TBK1 and IRF3 was observed
IFN-β production (IFN-β; BM-DC from WT versus STING^−/− mice, DMXAA): a high production of IFN-β
IFN-β production (IFN-β; STING^−/− macrophages, DMXAA 50 μg/ml): only in WT macrophages; also recorded: not from STING^−/− macrophages
IFN-β production (IFN-β; WT macrophages, DMXAA 50 μg/ml): high production of IFN-β; also recorded: IFN-β secretion was detected
